# Source: US9914730B2, “Azaquinazoline inhibitors of Atypical protein Kinase C” (Ignyta, Inc., priority 2012, dated 2018)
# Target: T1, full-length human PKCι (Homo sapiens, UniProt P41743)
# T1 construct: Recombinant, full-length human PKCι expressed in Sf21 insect cells is also commercially available; purchased; host or cells: Sf21 insect cells
# T1 sequence (P41743 1-596): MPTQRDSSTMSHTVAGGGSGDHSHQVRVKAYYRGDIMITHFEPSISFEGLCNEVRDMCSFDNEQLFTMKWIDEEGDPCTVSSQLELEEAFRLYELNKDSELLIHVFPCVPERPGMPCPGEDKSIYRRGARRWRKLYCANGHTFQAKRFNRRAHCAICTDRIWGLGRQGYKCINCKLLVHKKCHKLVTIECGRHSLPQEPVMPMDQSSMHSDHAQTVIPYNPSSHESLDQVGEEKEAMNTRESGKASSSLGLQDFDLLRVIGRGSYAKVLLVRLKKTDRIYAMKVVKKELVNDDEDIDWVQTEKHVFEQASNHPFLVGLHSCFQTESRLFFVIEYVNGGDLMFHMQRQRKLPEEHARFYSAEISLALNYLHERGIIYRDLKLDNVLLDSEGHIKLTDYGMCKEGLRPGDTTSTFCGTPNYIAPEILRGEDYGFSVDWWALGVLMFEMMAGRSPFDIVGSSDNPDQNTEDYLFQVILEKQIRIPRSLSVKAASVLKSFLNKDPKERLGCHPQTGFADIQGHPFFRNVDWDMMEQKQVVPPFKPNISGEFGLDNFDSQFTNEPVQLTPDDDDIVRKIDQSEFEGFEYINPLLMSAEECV
# Assay: PKCι IC50 IMAP assay, full-length PKCι at 150 μM ATP
# Format: biochemical
# Details: read-out: IC50 in IMAP assay against full length PKCi at 150 μM ATP
# Method in brief: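 IC50 from IMAP FP (ex 485/em 530 nm) after 60 min room-temperature reaction in pH 7.5 tris buffer with 9 mM MgCl2 and 0.9 mM DTT. Enzyme: full-length Sf21-expressed PKCι (~15 pM); ATP 150 μM, five times KM^APP; FAM-labelled peptide 100 nM; DMSO 4%.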
row,Compound,IC50 [nM]
1,"CC(C)(C)c1cc2c(-c3nc(N4CCNCC4)c4c(C5CC5)cnc(C5CC5)c4n3)ccnc2[nH]1 [Example 2190, 2-(2-tert-Butyl-1H-pyrrolo[2,3-b]pyridin-4-yl)-5,8-dicyclopropyl-4-piperazin-1-yl-pyrido[3,4-d]pyrimidine]",< 100
2,"Fc1ccc(Nc2cc(-c3nc(N4CCNCC4)c4c(C5CC5)cncc4n3)ccn2)nn1 [Example 2191, [4-(5-Cyclopropyl-4-piperazin-1-yl-pyrido[3,4-d]pyrimidin-2-yl)-pyridin-2-yl]-(6-fluoro-pyridazin-3-yl)-amine]",< 100
3,"c1cc(-c2nc(N3CCNCC3)c3c(C4CC4)cncc3n2)c2cc(C3CCOC3)[nH]c2n1 (centres unmarked) [Example 2192, 5-Cyclopropyl-4-piperazin-1-yl-2-[2-(tetrahydro-furan-3-yl)-1H-pyrrolo[2,3-b]pyridin-4-yl]-pyrido[3,4-d]pyrimidine]",< 100
4,"Fc1cccc(F)c1Nc1cc(-c2nc(N3CCNCC3)c3c(C(F)(F)F)cncc3n2)ccn1 [Example 2193, (2,6-Difluoro-phenyl)-[4-(4-piperazin-1-yl-5-trifluoromethyl-pyrido[3,4-d]pyrimidin-2-yl)-pyridin-2-yl]-amine]",< 100
5,"Fc1cnc(Nc2cc(-c3nc(N4CCNCC4)c4c(C(F)(F)F)cncc4n3)ccn2)c(F)c1 [Example 2194, (3,5-Difluoro-pyridin-2-yl)-[4-(4-piperazin-1-yl-5-trifluoromethyl-pyrido[3,4-d]pyrimidin-2-yl)-pyridin-2-yl]-amine]",< 100
6,"Fc1cc(F)c(Nc2cc(-c3nc(N4CCNCC4)c4c(C(F)(F)F)cncc4n3)ccn2)nc1F [Example 2195, [4-(4-Piperazin-1-yl-5-trifluoromethyl-pyrido[3,4-d]pyrimidin-2-yl)-pyridin-2-yl]-(3,5,6-trifluoro-pyridin-2-yl)-amine]",< 100
7,"CN(c1nc(-c2ccnc(Nc3ncc(F)cc3F)c2)nc2cncc(C3CC3)c12)C1CCNCC1(C)C (centres unmarked) [Example 2196, {5-Cyclopropyl-2-[2-(3,5-difluoro-pyridin-2-ylamino)-pyridin-4-yl]-pyrido[3,4-d]pyrimidin-4-yl}-(3,3-dimethyl-piperidin-4-yl)-methyl-amine]",< 100
8,"N[C@H]1CCCN(c2nc(-c3ccnc(Nc4ncc(F)cc4F)c3)nc3cncc(C4CC4)c23)C1 [Example 2198, {4-[4-(3-Amino-piperidin-1-yl)-5-cyclopropyl-pyrido[3,4-d]pyrimidin-2-yl]-pyridin-2-yl}-(3,5-difluoro-pyridin-2-yl)-amine]",< 100
9,"c1cc(-c2nc(N3CCNCC3)c3c(C4CCC4)cncc3n2)c2c3c([nH]c2n1)CCCC3 [Example 2199, 4-(5-Cyclobutyl-4-piperazin-1-yl-pyrido[3,4-d]pyrimidin-2-yl)-6,7,8,9-tetrahydro-5H-pyrido[2,3-b]indole]",100 to 1000
10,"Clc1ccc2[nH]c3nccc(-c4nc(N5CCNCC5)c5c(C6CCC6)cncc5n4)c3c2c1 [Example 2200, 6-Chloro-4-(5-cyclobutyl-4-piperazin-1-yl-pyrido[3,4-d]pyrimidin-2-yl)-9H-pyrido[2,3-b]indole]",< 100
11,"Clc1ccccc1-c1cc2c(-c3nc(N4CCNCC4)c4c(C5CC5)cncc4n3)ccnc2[nH]1 [Example 2202, 2-[2-(2-Chloro-phenyl)-1H-pyrrolo[2,3-b]pyridin-4-yl]-5-cyclopropyl-4-piperazin-1-yl-pyrido[3,4-d]pyrimidine]",< 100
12,"Fc1ccccc1-c1cc2c(-c3nc(N4CCNCC4)c4c(C5CCC5)cncc4n3)ccnc2[nH]1 [Example 2203, 5-Cyclobutyl-2-[2-(2-fluoro-phenyl)-1H-pyrrolo[2,3-b]pyridin-4-yl]-4-piperazin-1-yl-pyrido[3,4-d]pyrimidine]",< 100
13,"(2,6-Difluoro-phenyl)-{2-[2-(2,6-difluoro-phenylamino)-pyridin-4-yl]-4-piperazin-1-yl-pyrido[3,4-d]pyrimidin-5-yl}-amine [Example 262]",100 to 1000
14,"(3-Chloro-2,6- difluoro-phenyl)- [4-(5-cyclopropyl- 4-piperazin-1-yl- pyrido[3,4- d]pyrimidin-2-yl)- pyridin-2-yl]- amine [Example 649]",< 100
15,"(3S)-3-benzyl-1-[6- chloro-2-(pyridin-4- yl)pyrido[3,4-d]- pyrimidin-4- yl]piperazine [Example 14]",100 to 1000
16,"N-[(2S)-2-amino- 3-phenylpropyl]- 8-(furan-3-yl)-2- (pyridin-4-yl)- pyrido[3,4-d]- pyrimidin-4- amine [Example 113]",100 to 1000
17,"[4-(5-Cyclopropyl- 4-piperazin-1-yl- pyrido[3,4- d]pyrimidin-2-yl)- pyridin-2-yl]-(2,3- dichloro-phenyl)- amine [Example 543]",< 100
18,"[4-(5-Cyclopropyl- 4-piperazin-1-yl- pyrido[3,4- d]pyrimidin-2-yl)- pyridin-2-yl]-(4- trifluoromethyl- phenyl)-amine [Example 596]",10000 to 40000

# The remaining lines, values ahead:
row,IC50 [nM],Compound
1,< 100,"Clc1ccccc1-c1cc2c(-c3nc(N4CCNCC4)c4c(C5CCC5)cncc4n3)ccnc2[nH]1 [Example 2204, 2-[2-(2-Chloro-phenyl)-1H-pyrrolo[2,3-b]pyridin-4-yl]-5-cyclobutyl-4-piperazin-1-yl-pyrido[3,4-d]pyrimidine]"
2,< 100,"CNC1CCCN(c2nc(-c3ccnc(Nc4ncc(F)cc4F)c3)nc3cncc(C4CC4)c23)C1 (centres unmarked) [Example 2205, {4-[5-Cyclopropyl-4-(3-methylamino-piperidin-1-yl)-pyrido[3,4-d]pyrimidin-2-yl]-pyridin-2-yl}-(3,5-difluoro-pyridin-2-yl)-amine]"
3,10000 to 40000,"CNc1ccc(Nc2nc(-c3ccnc(Nc4ncc(F)cc4F)c3)nc3cncc(C4CC4)c23)cc1 [Example 2206, N-{5-Cyclopropyl-2-[2-(3,5-difluoro-pyridin-2-ylamino)-pyridin-4-yl]-pyrido[3,4-d]pyrimidin-4-yl}-N′-methyl-benzene-1,4-diamine]"
4,< 100,"FC(F)(F)C1(c2cc3c(-c4nc(N5CCNCC5)c5c(C6CC6)cncc5n4)ccnc3[nH]2)CCC1 [Example 2207, 5-Cyclopropyl-4-piperazin-1-yl-2-[2-(1-trifluoromethyl-cyclobutyl)-1H-pyrrolo[2,3-b]pyridin-4-yl]-pyrido[3,4-d]pyrimidine]"
5,100 to 1000,"c1cc(-c2nc(N3CCNCC3)c3c(C4CC4)cncc3n2)c2c3c([nH]c2n1)CCCC3 [Example 2208, 4-(5-Cyclopropyl-4-piperazin-1-yl-pyrido[3,4-d]pyrimidin-2-yl)-6,7,8,9-telrahydro-5H-pyrido[2,3-b]indole]"
6,< 100,"Cc1[nH]c2nccc(-c3nc(N4CCNCC4)c4c(C5CC5)cncc4n3)c2c1Cl [Example 2209, 2-(3-Chloro-2-methyl-1H-pyrrolo[2,3-b]pyridin-4-yl)-5-cyclopropyl-4-piperazin-1-yl-pyrido[3,4-d]pyrimidine]"
7,< 100,"c1cc(-c2nc(N3CCNCC3)c3c(C4CCC4)cncc3n2)cc(NC2CCOCC2)n1 [Example 2210, [4-(5-Cyclobutyl-4-piperazin-1-yl-pyrido[3,4-d]pyrimidin-2-yl)-pyridin-2-yl]-(tetrahydro-pyran-4-yl)-amine]"
8,1000 to 10000,"CC1(C)C(=O)Nc2nccc(-c3nc(N4CCNCC4)c4c(C5CC5)cncc4n3)c21 [Example 2211, 4-(5-Cyclopropyl-4-piperazin-1-yl-pyrido[3,4-d]pyrimidin-2-yl)-3,3-dimethyl-1,3-dihydro-pyrrolo[2,3-b]pyridin-2-one]"
